Assay results as given in PMC9851200, “Multiparameter phenotypic screening for endogenous TFEB and TFE3 translocation identifies novel chemical series modulating lysosome function” (Autophagy, 2022).
Read-outs that look alike come from different tables or passages of the source.

Assays:
[1] = tested on: endogenous TFE3; test: TFE3 nuclear translocation, immunocytochemistry high-content imaging; format: cell-based
[2] = tested on: SH-SY5Y cells; test: AK (adenylate kinase) release ToxiLight cytotoxicity assay; further: reference of the scale not given here
[3] = tested on: endogenous TFEB; test: TFEB nuclear translocation, immunocytochemistry high-content imaging; format: cell-based
[4] = tested on: SH-SY5Y cells; further: reference of the scale not given here
[5] = tested on: SH-SY5Y cells; test: Nuclear count from microscopy images (cellular growth and toxicity); further: reference of the scale not given here
[6] = PKIS2 primary screening, DQ Red BSA intensity
[7] = PKIS2 primary screening, DQ Red BSA spot count
[8] = PKIS2 primary screen, DQ Red BSA intensity
[9] = PKIS2 primary screen, DQ Red BSA spot count

| Structure (SMILES) | TFE3 % ([1]; PKIS2 primary screening) | AK ([2]; PKIS2 primary screening) | TFEB % ([3]; PKIS2 primary screening) | DQ Intensity ([4]; PKIS2 primary screening) | DQ Spot ([4]; PKIS2 primary screening) | Nuclear Count ([5]; PKIS2 primary screening) | DQ Intensity [4, 6] | DQ Spot [4, 7] | also measured |
| --- | --- | --- | --- | --- | --- | --- | --- | --- | --- |
| CN(C)CCN(C)C(=O)c1cc(-c2ccncc2)c(-c2ccc(Cl)c(O)c2)o1.Cl.Cl [UNC10225256A] | 22.07% | 88.55 | 10.97% | 171.47 | 68.22 | 130.04 |  |  |  |
| O=C(O)C(F)(F)F.O=c1[nH]ccc2nc(N[C@@H]3CCNC3)nc(Nc3cc(Cl)cc(Cl)c3)c12 [UNC10225257A] | 8.28% | 117.20 | 7.01% | 65.99 | 83.26 | 111.57 |  |  |  |
| CC(C)N1CCC(n2cnc(-c3ccc(F)cc3)c2-c2ccnc(N)n2)CC1 [UNC10225258A] | 12.02% | 107.69 | 5.04% | 110.79 | 99.41 | 83.47 |  |  |  |
| NC(=O)c1sc(-n2cnc3ccccc32)cc1OCc1ccccc1F [UNC10225260A] | 15.10% | 77.77 | 10.02% | 138.58 | 126.89 | 92.38 |  |  |  |
| COc1cc2ncnc(Nc3ccc(OCc4ccccc4Br)c(Cl)c3)c2cc1OC.Cl [UNC10225261A] | 8.49% | 120.37 | 4.00% |  |  | 123.73 | 96.30 | 117.72 |  |
| C[C@@H](Oc1cc(-n2cnc3cc(-c4ccncc4)ccc32)sc1C(N)=O)c1ccccc1Cl [UNC10225262A] | 14.34% | 125.08 | 9.74% | 208.10 | 109.28 | 39.15 |  |  |  |
| Cc1ccc(NC(=O)c2cccc(C#N)c2)cc1-c1ccc(C(=O)Nc2ccncc2)cc1 [UNC10225263A] | 18.65% | 76.98 | 13.51% | 106.14 | 106.02 | 75.93 |  |  |  |
| NCCCC(NC(=O)c1cc(Br)c(-c2ccnc3[nH]ccc23)s1)c1ccccc1.O=C(O)C(F)(F)F.O=C(O)C(F)(F)F (stereo not drawn) [UNC10225265A] | 12.13% | 80.18 | 4.66% |  |  | 128.28 | 112.08 | 100.65 |  |
| O=C(O)C(F)(F)F.O=C(O)C(F)(F)F.O=c1[nH]ccc2nc(N[C@@H]3CCCNC3)nc(Nc3ccc(S(=O)(=O)N4CCOCC4)cc3)c12 [UNC10225269A] | 12.97% | 88.07 | 8.33% | 101.94 | 104.22 | 106.18 |  |  |  |
| COc1cc2c(Nc3cccc(NC(=O)c4ccccc4)c3)ncnc2cc1OCCCN1CCOCC1 [UNC10225271A] | 10.54% | 98.71 | 3.87% |  |  | 122.91 | 90.70 | 104.52 |  |
| CNc1nccc(-c2c(-c3ccc(F)cc3)ncn2C2CCN(C)CC2)n1 [UNC10225274A] | 15.08% | 126.95 | 7.89% | 105.02 | 100.15 | 122.34 |  |  |  |
| CS(=O)(=O)CCNCc1nc(-c2ccc3ncnc(Nc4ccc(OCc5ccccc5)c(Cl)c4)c3c2)cs1.Cl [UNC10225279B] | 17.30% | 96.76 | 5.66% |  |  | 87.19 | 82.64 | 92.63 |  |
| Cc1cccc(Nc2nc(N[C@H]3CCCC[C@H]3N)ncc2C(N)=O)c1.Cl [UNC10225280A] | 21.69% | 87.17 | 7.12% | 129.29 | 106.20 | 90.29 |  |  |  |
| Cc1nnc(-c2ccc(C)c(-c3ccc(C(=O)Nc4ccc(NS(C)(=O)=O)cc4)cc3)c2)o1 [UNC10225285A] | 14.74% | 85.18 | 4.26% | 105.08 | 99.25 | 90.38 |  |  |  |
| C[C@@H](Oc1cc(-n2cnc3ccc(NC(=O)NC(C)(C)C)cc32)sc1C(N)=O)c1ccccc1Cl [UNC10225287A] | 9.35% | 76.21 | 3.50% | 115.96 | 109.60 | 136.32 |  |  |  |
| c1ccc(-c2n[nH]cc2-c2ccnc3ccccc23)nc1 [UNC10225289A] |  | 102.26 |  |  |  | 134.93 |  |  | TFE3 % [1]: 7.71%; TFEB % [3]: 2.12%; DQ Intensity [4]: 80.70; DQ Spot [4]: 82.58 |
| COc1ccc2cc(-c3nc(-c4ccccc4C(C)C)[nH]c3-c3ccncc3)ccc2c1 [UNC10225291A] | 9.24% | 85.35 | 11.56% |  |  | 105.82 | 102.38 | 102.77 |  |

| Structure (SMILES) | TFE3 % ([1]; PKIS2 primary screening) | AK ([2]; PKIS2 primary screening) | TFEB % ([3]; PKIS2 primary screening) | DQ Intensity ([4]; PKIS2 primary screening) | DQ Spot ([4]; PKIS2 primary screening) | Nuclear Count ([5]; PKIS2 primary screening) | DQ Intensity [4, 6] | DQ Spot [4, 7] | also measured |
| --- | --- | --- | --- | --- | --- | --- | --- | --- | --- |
| COc1cccc(C2=C(N(C)c3ccccc3)C(=O)NC2=O)c1 [UNC10225293A] | 13.51% | 74.50 | 4.50% |  |  | 78.26 | 96.89 | 106.44 |  |
| COc1ccccc1CNC(=O)c1cc(C(=O)c2ccccc2C)c[nH]1 [UNC10225294A] |  |  |  |  |  |  |  |  | TFE3 % ([1]; PKIS2 primary screen): 19.95%; AK ([2]; PKIS2 primary screen): 95.17; TFEB % ([3]; PKIS2 primary screen): 4.46%; DQ Intensity [4, 8]: 126.95; DQ Spot [4, 9]: 127.30; Nuclear Count ([5]; PKIS2 primary screen): 105.84 |
| Cn1cc(-c2ccc3c(c2)CCN3C(=O)Cc2cccc(F)c2)c2c(N)ncnc21 [UNC10225297A] | 15.69% | 109.17 | 6.82% | 118.40 | 112.51 | 104.97 |  |  |  |
| NS(=O)(=O)c1cccc(N/C=C2\C(=O)Nc3ccc(S(=O)(=O)Cc4c(Cl)cccc4Cl)cc32)c1 [UNC10225298A] |  |  |  |  |  |  |  |  | TFE3 % ([1]; PKIS2 primary screen): 5.33%; AK ([2]; PKIS2 primary screen): 117.06; TFEB % ([3]; PKIS2 primary screen): 5.78%; DQ Intensity [4, 8]: 100.02; DQ Spot [4, 9]: 99.79; Nuclear Count ([5]; PKIS2 primary screen): 112.41 |
| Nc1nc(-c2ccccc2F)c(-c2ccnc3ccccc23)s1 [UNC10225301A] | 14.12% | 75.40 | 2.45% |  |  | 129.96 | 64.84 | 87.10 |  |
| CCC(CC)(CC)n1cnc2c(N)ncnc21 [UNC10225302A] | 9.37% | 115.78 | 11.64% | 92.29 | 100.17 | 100.18 |  |  |  |
| COc1cccc2c(-c3ccncc3)c(-c3ccc(F)cc3)nn12 [UNC10225305A] | 7.73% | 95.93 | 7.57% |  |  | 99.48 | 96.09 | 98.66 |  |
| Cl.Cl.NCC(NC(=O)c1cc(-c2cccnc2)c(-c2ccnc3[nH]ccc23)s1)c1ccccc1 (stereo not drawn) [UNC10225315A] | 8.64% | 87.17 | 2.45% |  |  | 113.28 | 78.29 | 90.57 |  |
| COc1cc(Nc2nccc(-c3c(-c4cccc(NC(=O)c5c(F)cccc5F)c4)nn4ccccc34)n2)cc(OC)c1OC [UNC10225318A] | 5.80% | 96.57 | 6.03% | 105.65 | 109.19 | 94.38 |  |  |  |
| Fc1ccc(-c2ncn(CCCN3CCOCC3)c2-c2cccnc2)cc1 [UNC10225320A] | 16.30% | 125.08 | 7.10% |  |  | 104.41 | 94.06 | 100.66 |  |
| Cc1ccc2c(-c3ccncc3)c(-c3ccc(F)cc3)nn2c1.Cl [UNC10225321A] | 14.14% | 67.03 | 3.59% |  |  | 114.41 | 88.59 | 94.42 |  |
| CC(C)c1ccc(O)cc1Nc1ccnc2ccc(C(F)(F)F)cc12 [UNC10225322A] | 14.84% | 93.97 | 7.26% |  |  | 91.30 | 103.64 | 104.80 |  |
| O=C(Nc1cccc(-c2nn3ccccc3c2-c2ccnc(Nc3cccc(C(F)(F)F)c3)n2)c1)c1c(F)cccc1F [UNC10225325A] | 14.69% | 71.36 | 6.17% | 102.24 | 131.00 | 61.45 |  |  |  |
| O=c1cc(N2CCOCC2)nc2n(Cc3cccc(F)c3)ccn12 [UNC10225332A] | 15.66% | 128.93 | 6.97% | 100.57 | 98.19 | 95.52 |  |  |  |
| COc1ccc(-c2nc3n(c2-c2ccncc2)CCC3)cc1 [UNC10225334B] | 11.14% | 75.67 | 9.58% |  |  | 89.36 | 91.69 | 94.15 |  |
| CC1=C(C(=O)Nc2cc3cn[nH]c3cc2F)C(c2ccc(C(F)(F)F)cc2)CC(=O)N1 (stereo not drawn) [UNC10225339A] | 22.61% | 70.62 | 3.31% | 158.90 | 127.41 | 108.36 |  |  |  |
| Nc1ncnc2c1nc(-c1ccccc1)n2-c1ccccc1 [UNC10225340A] | 8.63% | 115.76 | 8.74% | 122.27 | 108.09 | 115.47 |  |  |  |
